{
  "source": "ChEMBL document CHEMBL1140941",
  "about": "(J Med Chem, 2009)",
  "key": {"[1]": {"target": "Nuclear receptor subfamily 1 group I member 2 (Homo sapiens, UniProt O75469)", "sequence (O75469 whole entry)": "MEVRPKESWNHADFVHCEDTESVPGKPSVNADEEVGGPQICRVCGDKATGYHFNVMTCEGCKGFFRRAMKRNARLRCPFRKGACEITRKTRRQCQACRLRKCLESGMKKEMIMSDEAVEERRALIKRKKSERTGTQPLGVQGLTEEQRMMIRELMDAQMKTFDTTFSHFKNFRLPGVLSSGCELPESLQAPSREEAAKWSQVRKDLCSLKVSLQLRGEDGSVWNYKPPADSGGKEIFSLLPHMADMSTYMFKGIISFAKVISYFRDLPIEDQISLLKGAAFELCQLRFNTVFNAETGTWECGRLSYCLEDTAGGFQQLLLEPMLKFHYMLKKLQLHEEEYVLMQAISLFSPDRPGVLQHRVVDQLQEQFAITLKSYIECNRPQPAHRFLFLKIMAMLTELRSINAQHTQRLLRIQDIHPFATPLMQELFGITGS", "test": "Agonist activity at SXR expressed in african green monkey CV1 cells co-expressing MH100 by luciferase reporter gene assay", "format": "functional, cell-based", "conditions": "cv-1"}, "[2]": {"target": "T1, Mineralocorticoid receptor (Homo sapiens) (UniProt P08235)", "T1 sequence (whole entry)": "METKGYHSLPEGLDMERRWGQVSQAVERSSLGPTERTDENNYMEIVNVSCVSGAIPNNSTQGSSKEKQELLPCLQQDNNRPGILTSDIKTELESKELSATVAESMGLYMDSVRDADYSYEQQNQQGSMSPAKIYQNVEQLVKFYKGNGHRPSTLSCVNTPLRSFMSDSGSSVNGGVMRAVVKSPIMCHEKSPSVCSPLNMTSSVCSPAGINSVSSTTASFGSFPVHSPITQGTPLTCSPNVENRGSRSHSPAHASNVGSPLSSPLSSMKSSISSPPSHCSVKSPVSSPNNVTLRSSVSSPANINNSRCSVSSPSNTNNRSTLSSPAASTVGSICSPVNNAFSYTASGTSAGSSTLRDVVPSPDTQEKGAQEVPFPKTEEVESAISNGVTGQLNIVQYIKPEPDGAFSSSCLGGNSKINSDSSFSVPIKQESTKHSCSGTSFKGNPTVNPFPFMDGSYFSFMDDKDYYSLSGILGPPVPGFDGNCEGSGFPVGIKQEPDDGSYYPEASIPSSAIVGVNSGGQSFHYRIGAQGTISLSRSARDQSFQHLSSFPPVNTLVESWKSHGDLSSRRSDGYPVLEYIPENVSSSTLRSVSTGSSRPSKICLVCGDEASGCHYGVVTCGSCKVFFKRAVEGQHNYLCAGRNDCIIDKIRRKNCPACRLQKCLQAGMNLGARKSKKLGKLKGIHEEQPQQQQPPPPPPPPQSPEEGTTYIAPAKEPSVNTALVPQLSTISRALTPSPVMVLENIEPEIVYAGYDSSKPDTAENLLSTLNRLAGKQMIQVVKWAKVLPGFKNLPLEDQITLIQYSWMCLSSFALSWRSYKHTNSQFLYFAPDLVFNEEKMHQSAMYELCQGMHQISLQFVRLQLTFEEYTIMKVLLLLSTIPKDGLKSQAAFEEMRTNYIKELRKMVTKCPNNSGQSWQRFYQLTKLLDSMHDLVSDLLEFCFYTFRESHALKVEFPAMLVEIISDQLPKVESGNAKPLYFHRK", "test": "Agonist activity at gal-MR expressed in african green monkey CV1 cells co-expressing MH100 up to 10 uM by luciferase reporter gene assay relative to control", "format": "functional, cell-based", "conditions": "CV-1"}, "[3]": {"target": "Oxysterols receptor LXR-beta (Homo sapiens) (UniProt P55055)", "sequence (P55055 whole entry)": "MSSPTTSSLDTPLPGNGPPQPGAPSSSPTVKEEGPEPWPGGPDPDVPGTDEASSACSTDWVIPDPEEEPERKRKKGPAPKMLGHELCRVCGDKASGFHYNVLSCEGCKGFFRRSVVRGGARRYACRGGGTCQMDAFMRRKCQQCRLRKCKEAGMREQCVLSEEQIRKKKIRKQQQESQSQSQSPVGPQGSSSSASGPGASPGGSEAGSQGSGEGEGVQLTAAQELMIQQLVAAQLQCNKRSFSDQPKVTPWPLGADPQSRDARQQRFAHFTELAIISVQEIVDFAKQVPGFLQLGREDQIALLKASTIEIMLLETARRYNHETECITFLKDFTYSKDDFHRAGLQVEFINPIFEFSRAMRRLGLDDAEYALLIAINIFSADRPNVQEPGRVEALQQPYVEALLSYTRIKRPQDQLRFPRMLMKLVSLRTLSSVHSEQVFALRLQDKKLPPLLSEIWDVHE", "test": "Agonist activity at LXRbeta expressed in african green monkey CV1 cells co-expressing LXRE by luciferase reporter gene assay", "format": "functional, cell-based", "conditions": "CV-1"}, "Mus musculus": {"system": "Mus musculus", "test": "Reduction of plasma total cholesterol level in C57BL/6 mouse at 10 mg/kg, po administered for 7 days measured after 3 hrs", "format": "ADME, organism-based", "parameters": "dose 10 mg/kg, route oral", "conditions": "in vivo"}, "[4]": {"target": "T2, Peroxisome proliferator-activated receptor delta (Homo sapiens) (UniProt Q03181)", "T2 sequence (whole entry)": "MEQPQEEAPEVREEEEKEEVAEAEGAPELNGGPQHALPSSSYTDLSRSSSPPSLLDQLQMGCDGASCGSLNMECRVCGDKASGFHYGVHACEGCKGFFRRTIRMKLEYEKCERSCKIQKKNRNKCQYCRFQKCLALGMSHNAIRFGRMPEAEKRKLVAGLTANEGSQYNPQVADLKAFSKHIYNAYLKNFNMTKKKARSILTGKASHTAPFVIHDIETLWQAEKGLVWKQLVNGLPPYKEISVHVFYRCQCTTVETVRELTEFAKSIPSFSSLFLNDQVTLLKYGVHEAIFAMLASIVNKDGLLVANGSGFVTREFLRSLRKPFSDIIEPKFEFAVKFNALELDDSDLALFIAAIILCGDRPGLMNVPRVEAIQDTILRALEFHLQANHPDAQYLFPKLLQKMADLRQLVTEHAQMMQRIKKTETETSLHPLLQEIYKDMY", "test": "Agonist activity at PPARdelta expressed in african green monkey CV1 cells co-expressing MH100 by luciferase reporter gene assay", "format": "functional, cell-based", "conditions": "CV-1"}, "[5]": {"target": "T1, Mineralocorticoid receptor (Homo sapiens)", "test": "Agonist activity at gal-MR expressed in african green monkey CV1 cells co-expressing MH100 by luciferase reporter gene assay", "format": "functional, cell-based", "conditions": "CV-1"}, "[6]": {"target": "T3, Bile acid receptor (Homo sapiens) (UniProt Q96RI1)", "T3 sequence (whole entry)": "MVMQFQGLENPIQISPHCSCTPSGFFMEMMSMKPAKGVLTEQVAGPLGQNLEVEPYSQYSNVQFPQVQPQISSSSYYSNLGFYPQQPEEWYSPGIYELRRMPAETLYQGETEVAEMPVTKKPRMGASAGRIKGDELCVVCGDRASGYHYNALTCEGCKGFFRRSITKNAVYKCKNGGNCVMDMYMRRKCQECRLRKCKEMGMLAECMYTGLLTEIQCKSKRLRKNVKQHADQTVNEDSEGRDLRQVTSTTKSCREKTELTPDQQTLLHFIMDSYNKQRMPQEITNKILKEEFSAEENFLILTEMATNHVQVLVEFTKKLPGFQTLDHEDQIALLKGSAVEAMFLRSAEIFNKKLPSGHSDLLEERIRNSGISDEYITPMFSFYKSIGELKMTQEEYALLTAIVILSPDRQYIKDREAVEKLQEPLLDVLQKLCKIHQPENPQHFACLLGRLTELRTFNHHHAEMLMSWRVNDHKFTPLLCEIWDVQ", "test": "Antagonist activity at human FXR expressed in african green monkey CV1 cells co-expressing RXRE with RXR co-factor by luciferase reporter gene assay", "format": "functional, cell-based", "conditions": "CV-1"}},
  "note": "The source made the active and inactive calls. The calls are words filed in the database; no cut-off is given here.",
  "data": [
    {"smiles": "CC(C)OC(=O)C1=CN(C(=O)c2ccc(F)c(F)c2)CC(C)(C)c2c1[nH]c1ccccc21", "note": "[TUROFEXORATE ISOPROPYL]", "values": [
      {"measurement": "Activity", "setting": "[1]", "value": "Not Active"},
      {"measurement": "Activity", "setting": "[2]", "value": "inactive"},
      {"measurement": "Activity", "setting": "[3]", "value": "inactive"},
      {"measurement": "Activity", "setting": "Mus musculus", "value": 78.1, "unit": "mg/dL"},
      {"measurement": "Activity", "setting": "[4]", "value": "inactive"},
      {"measurement": "Activity", "setting": "[5]", "value": "inactive"},
      {"measurement": "Activity", "setting": "[6]", "value": "inactive"}
    ]}
  ]
}
